Assay [1] concerns the target T1, HYAL1-type HAase (Homo sapiens, UniProt Q12794).
T1 construct: HYAL1 cDNA encoding the full-length protein inserted into an expression vector; made in house
T1 sequence (Q12794 22-435): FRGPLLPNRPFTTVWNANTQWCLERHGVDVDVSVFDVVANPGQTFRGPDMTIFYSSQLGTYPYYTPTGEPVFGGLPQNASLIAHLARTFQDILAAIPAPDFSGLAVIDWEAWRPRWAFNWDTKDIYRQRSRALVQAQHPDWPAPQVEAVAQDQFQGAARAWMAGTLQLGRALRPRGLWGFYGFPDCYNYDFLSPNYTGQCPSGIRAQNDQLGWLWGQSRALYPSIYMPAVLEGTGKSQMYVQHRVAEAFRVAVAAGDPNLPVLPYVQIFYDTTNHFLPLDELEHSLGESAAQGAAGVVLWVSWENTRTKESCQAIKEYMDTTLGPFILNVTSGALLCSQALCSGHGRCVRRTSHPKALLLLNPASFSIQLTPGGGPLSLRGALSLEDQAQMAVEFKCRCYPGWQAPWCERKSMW
The assay is described as follows: HAase ELISA-like assay, inhibition of HYAL1 activity. The assay is classed as biochemical. How it is done:
Briefly, a stable HYAL1-expressing clone having about 40 mU/mL activity was expanded in T75 cm^2 flasks.
A microtiter well plate coated with human umbilical cord HA (MP Biomedicals; Irvine, Calif.) was incubated with about 40 mU/mL of HYAL1-type HAase in the presence or absence of various HAase inhibitors in assay buffer. For the HYAL1-type activity assay, 0.1 M sodium formate, 0.15 M NaCl, and 0.02% bovine serum albumin buffer (pH 4.2) was used as the assay buffer.
The effect of HAase inhibitors on the activity of HYAL1-type HAase was tested at 0, 1, 2, 4, 6, 8, 10, 20, 40, 60, 80 and 100 μg/mL concentrations of each inhibitor. […] Each plate was developed for 3 min and the reaction was terminated by adding 3 N HCl. HAase activity (mU/mL) was calculated from a standard graph prepared by plotting known amounts of Streptomyces HAase (10^−4 U/mL) versus (Control (no enzyme) OD405 nm-Sample OD405 nm). […] The data presented are mean ±SEM from duplicate measurements in two independent experiments.
Background: In an ELISA, binding on a coated surface is turned into a signal by an enzyme label.

Assay [2] concerns HYAL1, testicular, honeybee, and Streptomyces hyaluronidases (HAases). Conditions: Isoyama et al. (2006); 21 potential inhibitors; cited from earlier work.
In assay [3] the target is T2, HYAL1 (Homo sapiens, UniProt Q12794).
T2 sequence (Q12794 22-435): T1 sequence (Q12794 22-435)
Conditions: Isoyama et al. (2006); cited from earlier work.

The mark [4] stands for this setting: about 40 mU/mL HYAL1-type HAase, pH 4.2, 37° C. for 16 hours, N.D. = no inhibition detected.

The values that follow come from US20100075918A1, “HYALURONIDASE INHIBITORS AS ANTI-CANCER AGENTS” (priority 2006, published 2010).

Regarding poly(styrene-4-sulfonate) [PSS 150,000], the “IC50 (μg/mL), inhibition of HYAL1 activity” value (shortened to “IC50 (μg/mL), inhibition”) in assay [1] (setting [4]) turned out to be 10.5 µg/mL.
On to poly(styrene-4-sulfonate) [PSS 49,000], for which the “IC50 (μg/mL), inhibition” value in assay [1] (setting [4]) stood at 15.2 µg/mL.
Same read-out and setting: the same measure for poly(styrene-4-sulfonate) [PSS 17,000]: 15.2 µg/mL.
For poly(styrene-4-sulfonate) [PSS 77,000], the “IC50 (μg/mL), inhibition” value in assay [1] (setting [4]) worked out at 14.8 µg/mL.
Turning to `CC1(C)[C@@H](O[C@H]2O[C@H](C(=O)O)[C@@H](O)[C@H](O)[C@H]2O[C@@H]2O[C@H](C(=O)O)[C@@H](O)[C@H](O)[C@H]2O)CC[C@]2(C)[C@H]3C(=O)C=C4[C@@H]5C[C@@](C)(C(=O)O)CC[C@]5(C)CC[C@@]4(C)[C@]3(C)CC[C@@H]12` [Glycerrhizic acid, glycerrhizic acid], the “IC50 (μg/mL), inhibition” value in assay [1] (setting [4]) came to 32.4 µg/mL. Also, in assay [2], the “Effectiveness as HAase inhibitor” value is on record as “not effective HAase inhibitors”.
With Heparin, the “IC50 (μg/mL), inhibition” value in assay [1] (setting [4]) turned out to be 15.1 µg/mL. Besides, the “HYAL1 inhibition” value in assay [3] was “potent inhibitor”.
Take `CCCCCCCCCCCCCCS(=O)(=O)O` [1-Tetradecane sulfonic acid, 1-tetradecane sulfonic acid]: the IC50 in assay [1] (about 40 mU/mL HYAL1-type HAase, pH 4.2, 37° C. for 16 hours, N.D. = no inhibition detected, read-out: IC50 (μg/mL), inhibition of HYAL1 activity (converted)) is 67.9 µM. Moreover, in assay [2], the “Effectiveness as HAase inhibitor” value is on record as “not effective HAase inhibitors”.
Turning to poly(styrene-4-sulfonate) [PSS 32,000], the “IC50 (μg/mL), inhibition” value in assay [1] (setting [4]) was 13.5 µg/mL.
As to poly(styrene-4-sulfonate) [PSS 4300], the “IC50 (μg/mL), inhibition” value in assay [1] (setting [4]) is 8.48 µg/mL.
On to poly(styrene-4-sulfonate) [PSS 6800], for which the “IC50 to inhibit HYAL1 activity, fold higher than that for PSS 999,000 and PSS 17,000” value in assay [1] is 2.5 fold. In addition, the “IC50 (μg/mL), inhibition” value in assay [1] (setting [4]) was found to be 22.71 µg/mL.
The corresponding values for poly(styrene-4-sulfonate) [PSS 1400] are 2.5 fold and 26.8 µg/mL.
Take poly(styrene-4-sulfonate) [PSS 210]: the “IC50 for HYAL1” value in assay [3] is given as “no inhibition”.
With poly(styrene-4-sulfonate) [PSS 990,000], in assay [1] (setting [4]), the “IC50 (μg/mL), inhibition” value is 9.6 µg/mL. The IC50 in assay [3] was 0.0096 µM.
In the case of `O=C([O-])CC([S-])C(=O)[O-].[Au+].[Na+].[Na+]` (stereo not drawn) [sodium aurothiomalate], the “Effectiveness as HAase inhibitor” value in assay [2] is on record as “not effective HAase inhibitors”.
On to poly(styrene-4-sulfonate) [PSS 350,000], for which, in assay [1] (setting [4]), the “IC50 (μg/mL), inhibition” value was found to be 13.15 µg/mL.
